Experimental data from patent publication US20120128639A1, “In Vitro Production Of Oligodendrocytes From Human Umbilical Cord Stem Cells” (UNIVERSITY OF CENTRAL FLORIDA RESEARCH FOUNDATION, INC., priority 2009, published 2012).
Several values for one entry are separate records, joined by “and”; a condition that tells them apart may be missing. Equal entries are not always repeated. Entries after “also recorded” stand apart in the source; their conditions may differ.

Experiments:
[1] = system: human multipotent progenitor cells (MLPCs) from umbilical cord; settings: 3D environment; for need of the growth factor for process formation: presence or absence in medium
Description: MLPCs were seeded on DETA-coated glass coverslips (18 mm) at a density of 4×10^3 cells/cm^2 in growth medium. After 3 days, at about 60% confluency, cells were incubated for 24 hours in pre-induction medium, consisting of DMEM, 15% FBS. FGF-2, EGF (20 ng/ml each, R & D Systems, Minneapolis, Minn.) and PDGF-AA (10 ng/ml, Chemicon International, Temecula, Calif.). To initiate differentiation, the pre-induction medium was removed, the cells were washed 2× with Hanks' balanced salts solution (Gibco BRL) and transferred to serum-free differentiation medium.
Construction of 3D Environment MLPCs were plated on DETA-coated glass coverslips (18 mm) in growth medium. At about 60% confluence, growth medium was replaced with pre-induction medium. After the medium replacement, another set of coverslips was placed on the top of the cells. Prior to the placement, top coverslips were ethanol sterilized and washed in the pre-induction medium. After 24 hours the pre-induction medium was removed, the cells were washed 2× with Hanks' Balanced Salts Solution and transferred to serum-free differentiation medium.
Phase-contrast images were taken with a commercial Nikon Coolpix 990 camera using the Zeiss Axiovert S100 microscope. Pictures were analyzed using Scion Image Software (Scion Corp., Frederick, Md.).
The morphological and immunocytochemical quantification was performed on undifferentiated stem cells or cells during various differentiation stages. For each coverslip, at least 10 pictures were taken from randomly chosen views under 200× magnification. All the marker-positive cells were counted, as well as the total number of cells in these views. At least three coverslips in each group were quantified and data were expressed as average±standard deviation (SD). Statistical differences between different experimental groups were analyzed by Student's t-test.

[2] = system: human multipotent progenitor cells (MLPCs) from umbilical cord; experiment: Immunocytochemical analysis of MLPC differentiation into oligodendrocyte lineage in 2D environment; assay type: cell-based
Description: (§1) To characterize cells by immunocytochemistry, the top coverslips, if present, were first carefully removed. Cells were then briefly washed with Hanks' balanced salts solution and fixed in 4% paraformaldehyde for about 18 min. Fixed cells were stored in PBS, permeabilized with 0.5% Triton 100× in PBS for 7 min. blocked with 5% donkey serum for 1 hr, followed by incubation with primary antibody overnight at 4° C. Primary antibodies were mouse monoclonal A2B5 (MAB312, 1:250). O4 (MAB345, 1:100). O1 (MAB344, 1:200), MBP (1:25), rabbit polyclonal anti-galactocerebroside (AB142, 1:200), all from Chemicon, mouse monoclonal beta-2-AR (sc-81577, 1:200), rabbit polyclonal beta-1AR (sc-567, 1:250) from Santa Cruz Biotechnology, and alpha-1-AR (ab3462, 1:1000, Abcam Inc. Cambridge, Mass.). Following a PBS washing, cells were incubated with an Alexa Fluor 488-conjugated anti-mouse IgG or Alexa Fluor 488-conjugated anti-rabbit IgG for 2 hours at room temperature. After a PBS washing, the coverslips were mounted with Vectashield mounting medium (H1000, Vector Laboratories, Burlingame, Calif.) onto slides. For visualizing cellular nuclei, the specimens were counterstained with DAPI. Immunoreactivity was observed and analyzed by using an Ultra VIEW™ LCI confocal imaging system (Perkin Elmer).

[3] = system: human multipotent progenitor cells (MLPCs) from umbilical cord; experiment: Morphological analysis of MLPC differentiation in 2D environment; assay type: cell-based; settings: for need of the factor for the desired morphology (omission from differentiation medium): 15 days in differentiation medium
Description: MLPCs were seeded on DETA-coated glass coverslips (18 mm) at a density of 4×10^3 cells/cm^2 in growth medium. After 3 days, at about 60% confluency, cells were incubated for 24 hours in pre-induction medium, consisting of DMEM, 15% FBS. […] To initiate differentiation, the pre-induction medium was removed, the cells were washed 2× with Hanks' balanced salts solution (Gibco BRL) and transferred to serum-free differentiation medium.

[4] = system: human multipotent progenitor cells (MLPCs) from umbilical cord; experiment: Immunocytochemical analysis of MLPC differentiation in 3D environment (NE or AR agonists); assay type: cell-based; settings: for cells stained positively for A2B5 / cells stained positively for MBP / cells stained positively for O4 / cells stained positively for O1 galactocerebroside: 30 days of differentiation, 20 μM added daily
Description: To characterize cells by immunocytochemistry, the top coverslips, if present, were first carefully removed. […] Cambridge, Mass.). Following a PBS washing, cells were incubated with an Alexa Fluor 488-conjugated anti-mouse IgG or Alexa Fluor 488-conjugated anti-rabbit IgG for 2 hours at room temperature. After a PBS washing, the coverslips were mounted with Vectashield mounting medium ([…], Vector Laboratories, Burlingame, Calif.) onto slides. For visualizing cellular nuclei, the specimens were counterstained with DAPI. Immunoreactivity was observed and analyzed by using an Ultra VIEWTM LCI confocal imaging system (Perkin Elmer).

[5] = system: α1-ARs; experiment: Immunocytochemical analysis of α1-AR expression in MLPCs; assay type: cell-based, human; settings: undifferentiated MLPCs; 24 hrs treatment with bFGF alone
Description: as §1

[6] = 8 days of differentiation, differentiation medium with 20 μM NE

Compound: PDGF
- need of the growth factor for process formation [1]: required

Compound: NC[C@H](O)c1ccc(O)c(O)c1 [NE, norepinephrine]
- expression of MBP ([2]; 8 days of differentiation): absent
- cells with positive staining for A2B5 [2, 6]: 72.4% and 72.4±3.4%
- cells with positive staining for O4 [2, 6]: 69.9% and 69.9±4.9%
- cells with positive staining for A2B5 ([2]; day 15 of differentiation): 70.3%
- cells with positive staining for O4 ([2]; day 15 of differentiation): 69.7%
- MBP staining ([2]; day 20 of differentiation): negative
- O1 staining ([2]; day 20 of differentiation): negative
- cells A2B5 positive ([2]; day 20 of differentiation): 35.0% and 35.0±4.8%
- cells O4 positive ([2]; day 20 of differentiation): 49.7% and 49.7±7.9%
- expression of MBP ([2]; differentiating cells, time not stated (FIG. 3B)): absent
- need of the factor for the desired morphology (omission from differentiation medium) [3]: essential
- cells that developed multiple processes ([3]; within 8 days of differentiation): approximately 70%
- MBP staining ([4]; 20 days of differentiation): negative
- O1 staining ([4]; 20 days of differentiation): negative
- cells stained positively for A2B5 [4]: 57.7% and 57.7±3.6%
- cells stained positively for MBP [4]: 15.2% and 15.2±0.5%
- cells stained positively for O4 [4]: 79.6% and 79.6±2.9%
- survival of differentiated cells in culture [1]: more than 40 days

Compound: COC(=O)[C@@]1(O)C[C@H]2O[C@]1(C)n1c3ccccc3c3c4c(c5c6ccccc6n2c5c31)C(=O)NC4 [K252a]
- need of the factor for the desired morphology (omission from differentiation medium) [3]: essential

Compound: CNC[C@H](O)c1cccc(O)c1 [phenylephrine]
- cells stained positively for A2B5 [4]: 40.5±3.4%
- cells stained positively for O1 galactocerebroside [4]: 15.2±1.5%
- cells stained positively for O4 [4]: 39.8±2.8%
- cells with more mature morphology with developed processes ([1]; day 30): 10% and 15%
- cells that began to develop processes ([1]; within 15 days of differentiation): approximately 40%

Compound: bFGF: growth factor in pre-induction and differentiation medium
- need of the growth factor for process formation [1]: not essential
- nuclear expression of α1-ARs [5]: significant increase in staining intensity; also recorded: increase nuclear expression of α1-ARs

Compound: CC(C)NCC(O)c1ccc(O)c(O)c1 (centres unmarked) [isoproterenol]
- cells stained positively for A2B5 [4]: 57.9±4.9%
- cells stained positively for MBP [4]: negative
- cells stained positively for O1 galactocerebroside [4]: negative
- cells stained positively for O4 [4]: 42.5±2.7%
- cells displaying a bipolar morphology ([1]; daily treatment, first 15 days, unchanged within 30 days): approximately 60%
